Key:
TXNIP/TRX interaction = biological target: T1, TXNIP/TRX interaction (Homo sapiens, UniProt Q9H3M7); assay: TXNIP/TRX co-immunoprecipitation in THP1 cells; type: cell-based; settings: 25 mM glucose, 5 uM compound, up to 72 hours
T1 construct: endogenous in cells; host or cells: THP1 cells cultured under 25 mM glucose; nuclear cell extracts
T1 sequence (Q9H3M7 1-391): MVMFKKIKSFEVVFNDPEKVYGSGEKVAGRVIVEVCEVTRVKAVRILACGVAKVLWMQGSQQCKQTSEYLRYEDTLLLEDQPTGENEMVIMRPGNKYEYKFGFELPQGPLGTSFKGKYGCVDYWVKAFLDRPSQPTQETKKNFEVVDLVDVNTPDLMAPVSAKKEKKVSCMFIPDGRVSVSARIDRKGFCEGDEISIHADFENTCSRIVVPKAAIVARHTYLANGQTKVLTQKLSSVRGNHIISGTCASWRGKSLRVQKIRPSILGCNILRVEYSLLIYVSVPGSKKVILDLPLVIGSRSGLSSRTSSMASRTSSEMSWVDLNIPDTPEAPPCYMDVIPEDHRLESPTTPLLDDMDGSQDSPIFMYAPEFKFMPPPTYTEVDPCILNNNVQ
Description: FIG. 8. Effects of C30 and C38 on TXNIP/TRX interaction. THP1 cells were cultured under 25 mM glucose with 5 uM C30 or C38 for 72 hours. Aliquots were taken at different time points as indicated and nuclear cell extracts were prepared. Standard co-IP was performed with mouse anti-TRX Ab overnight. Beads were washed with buffer and blots treated with rabbit anti-TXNIP antibody (Ab) for detection of the complex (upper band).
(§1) Experimental testing of small molecules: We developed several different bench-based assays to perform rigorous and reproducible tests for the predicted hit molecules. These assays include testing direct binding to TXNIP as well as functional assays including under diabetic high glucose conditions. The assays are: (1) drug affinity responsive target stability test that tests the direct binding of the compounds. In this assay, when a compound binds to its target molecule, it can reduce the rate of its proteolytic digestion. (2) This assay looks for compounds that can interfere with the interaction between TXNIP and TRX in THP-1 monocytes treated with high glucose. TXNIP is highly expressed in cells treated with high glucose, and therefore would have high concentration of TXNIP/TRX complexes in the cell extract. Co-immunoprecipitation was done in these extracts through adding TRX antibody, and then the effects of compounds added were tested. […]

TXNIP = biological target: T2, TXNIP (Homo sapiens, UniProt Q9H3M7); assay: Drug affinity responsive target stability (DARTS) assay, THP1 cell extracts; type: binding; settings: THP-1 cell extracts, protease, aliquots at 7 minutes
T2 construct: THP1 cells were lysed with extract buffer; endogenous in cells; host or cells: THP1 cells cultured in RPMI 1640 under 25 mM glucose for 72 hours; cell extracts
T2 sequence (Q9H3M7 1-391): T1 sequence (Q9H3M7 1-391)
Description: FIG. 9. Treatment with C30 and C38 protects TXNIP from proteolysis in a DARTS assay. THP1 cell were cultured in RPMI 1640 medium under 25 mM glucose for 72 hours. Cell extracts were prepared. C30 and C38 were added at the indicated concentrations and protease was added except control lanes. Aliquots were withdrawn at 7 minutes and loaded on 10% SDS gels. Control: without protease.
as §1

TXNIP mRNA = TXNIP mRNA in human islets under high glucose plus cytokines; type: cell-based; settings: 25 mM glucose + TNFα, IL1β, IFNγ, 40 hours
Description: FIGS. 18A-18B. C30 and C38 compounds protect cells from apoptosis in human islets. 100 IEQ human islets (Hu 1178) were cultured in PIM(R)© containing NG (5.8 mM glucose) or HG (25 mM glucose), and TNFα (20 ng/ml), IL1β (20 ng/ml), IFNγ (200 ng/ml) for 40 hours with or without lead compounds. Total RNA was prepared and RT PCR performed. FIG. 18A: BCL2/BAX ratios are the mean±SEM from triplicates. Statistical analysis was performed for each column vs. HG, 3 cytokines using one-way ANOVA: *p<0.002. FIG. 18B: TXNIP relative mRNA levels. Data shown are the mean±SEM from triplicates. Statistical analysis was performed for each column vs. HG, 3 cytokines using one-way ANOVA: **p<0.0001.
We mimicked T1D conditions in vitro (25 mM glucose, […], […] and […]) to induced apoptosis in human islets (obtained from the Southern California Islet Cell Resources Center at City of Hope). This high glucose/cytokine cocktail was able to induce apoptosis in cultured human islets as indicated by a decrease in the BCL2/BAX ratio (FIG. 18A).

Row | SMILES | TXNIP association/interaction with TRX (co-IP band) (TXNIP/TRX interaction) | concentration from which TXNIP is protected from proteolysis (TXNIP) [µM] | TXNIP expression increased during apoptosis (TXNIP mRNA)
1 | COc1cc(N2CC[C@@H](c3ccc4ccccc4c3)[C@H](O)C2)nc(N)n1 [Compound C30] | significantly reduced | ~0.5 | significantly ameliorated
2 | c1ccc(CCNc2ncnc3c2oc2ccccc23)cc1 [Compound C38] | this interference was clearly reduced | ~0.5 | significantly ameliorated
